Results as given in US10106523B2, “Amide compound” (ASTELLAS PHARMA INC., priority 2014, dated 2018).

Biological target: T1, human EP4 receptor (Homo sapiens, UniProt P35408)
T1 construct: purchased Chemicon
Experiment: Human EP4 receptor antagonistic action by measurement of cAMP amount in human Jurkat cells
Assay type: cell-based
Conditions: PGE2 100 nmol/L, average of three experiments, read-out: IC50 value with respect to the cAMP production action by PGE2 in human Jurkat cells
Method: Test Example 3: Evaluation Test of Human EP4 Receptor Antagonistic Action by Measurement of cAMP Amount in Human Jurkat Cells
Jurkat cells (derived from human leukemia T lymphoma) were cultured under the conditions of 37° C. and 5% CO2, using an RPMI1640 culture medium (product No. 11879020, Invitrogen Inc.) with 10% fetal bovine serum (FBS) added. After proliferation up to semiconfluency, indomethacin having a final concentration of […] was added thereto, and the cells were further cultured for 18 hours. These cells were collected in a 15 mL Spitz tube, prepared at 1×10^6 cells/mL using a Cell Banker (Mitsubishi Kagaku Iatron), and stored at −80° C. […]
A cAMP HiRange kit (Cisbio international) was used for cAMP measurement. […] After incubation, the fluorescence intensity of the cryptate at 620 nm and the fluorescence intensity of the d2 at 665 nm were measured using ARVO1420 (PerkinElmer). The cAMPs at 280, 70, 17.5, 4.38, 1.09, 0.27, and 0.068 nmol/L were added to each well and the fluorescence intensity was measured as described above to create a standard curve. […] An average value was calculated from three experiment results.

T1 sequence (P35408 whole entry): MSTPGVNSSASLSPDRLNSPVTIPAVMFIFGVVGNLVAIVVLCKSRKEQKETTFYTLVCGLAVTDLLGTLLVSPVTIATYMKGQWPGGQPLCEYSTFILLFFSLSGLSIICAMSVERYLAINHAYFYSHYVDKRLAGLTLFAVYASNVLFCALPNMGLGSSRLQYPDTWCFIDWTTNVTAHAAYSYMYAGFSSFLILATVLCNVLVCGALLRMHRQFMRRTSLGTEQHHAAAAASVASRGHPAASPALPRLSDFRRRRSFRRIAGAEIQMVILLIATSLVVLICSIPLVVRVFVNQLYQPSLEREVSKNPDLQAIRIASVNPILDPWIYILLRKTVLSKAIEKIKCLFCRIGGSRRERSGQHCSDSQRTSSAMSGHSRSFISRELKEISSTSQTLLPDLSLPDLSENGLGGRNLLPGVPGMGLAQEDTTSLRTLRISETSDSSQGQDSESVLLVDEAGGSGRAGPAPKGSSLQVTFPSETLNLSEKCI

`Cc1nn(Cc2cc3ccccc3cn2)c(C(=O)N[C@@H](C)c2ccc(C(=O)O)cc2)c1Br` [Compound A, 4-[(1S)-1-({[4-bromo-1-(isoquinolin-3-ylmethyl)-3-methyl-1H-pyrazol-5-yl]carbonyl}amino)ethyl]benzoic acid] gave an IC50 of 0.16 nM.
